Values joined by “and” are separate entries in the source; they are usually repeats but may differ in a detail not shown here. Equal entries are not always repeated.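 48-hour exposure; five concentrations; linearly interpolated endpoints. Here, GI50 denotes the concentration required for 50% inhibition of growth. Definition used: TGI = concentration required for complete inhibition of growth.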 Where a SMILES comes first, the peptide text is derived from it. [ ]: non-standard residue; d: D form. The star is where a group is joined. ξ: configuration not given here. 4Abz = Nc1ccc(C(=O)O)cc1; ξL = CC(C)CC(N)C(=O)O; NHOH = ON* Where only a bound is given, the exact number is not on record here.

Common to all, as to assay: inhibition of tumour cell growth, NCI panel, 48 h
Experiment [1] has as its system A549 NSCLC.
For experiment [2], the system named is CAKI-1 renal.
Experiment [3] deals with HCT-15 colon.
Experiment [4] concerns MALME-3M melanoma.
Experiment [5] relates to MDA-MB-231 breast.
Experiment [6] concerns NCI-H460 lung.
The test system of experiment [7] is SK-MEL-28 melanoma.
Experiment [8] deals with SNB-19 CNS.
In experiment [9] the test system is T-47D breast.
Experiment [10] concerns UO-31 renal.

On to `CC([C@H]1CCC2C3CCC4C(=O)C(NC=O)=CC[C@]4(C)C3CC[C@@]21C)N(C)C` (stereo partly drawn), for which the GI50 in experiment [1] is 3.81 µM; in [2], 3.79 µM; in experiment [3], 1.42 µM; in [4] it was 2.34 µM; in [5], 2.36 µM; in [6], 2.15 µM. Further, the GI50 in experiment [7] was 1.86 µM; in experiment [8], 8.39 µM; in experiment [9], 1.73 µM; in experiment [10] it was 1.98 µM. Besides, the TGI came to 12.7 µM in experiment [1]; 33.5 µM in experiment [2]; 4.26 µM in experiment [3]; 5.96 µM in experiment [4]; 7.07 µM in experiment [5]; 5.49 µM in experiment [6]. For the same compound, the TGI in [7] is 3.55 µM; in experiment [8], 22.1 µM; in [9], 6.57 µM; in [10] it was 7.4 µM.
Take `CCSc1sc(-c2ccc(C)cc2)nc1[P+](c1ccccc1)(c1ccccc1)c1ccccc1`: the GI50 is 0.488 µM in [2]; 0.315 µM in experiment [3]; 0.288 µM in [4]; 0.259 µM in experiment [5]; 0.306 µM in [6]; 0.532 µM in [7]. Moreover, the GI50 in experiment [8] is 0.332 µM; in [9], 0.0863 µM; in experiment [10], 0.254 µM. Further, the TGI was found to be 1.35 µM in experiment [2]; 1.18 µM in [3]; 1.06 µM in [4]; 1.14 µM in experiment [5]; 1.12 µM in [6]; 1.82 µM in [7]. The values for the TGI in experiment [8], in experiment [9] and in experiment [10] were 1.39 µM, 1.27 µM and 0.866 µM, respectively.
As for `COC(=O)C1=C(O)C(C(=O)OC)[C@@]2(O)[C@@H](C(=O)OC)C(c3ccccc3C(F)(F)F)C[C@@H]1[C@@H]2C(=O)OC` (stereo partly drawn), the GI50 is 10.4 µM in [1]; 2.71 µM in [2]; 1.4 µM in experiment [3]; 7.99 µM in experiment [5]; 3.11 µM in experiment [6]; 2.13 µM in experiment [7]. The GI50 in [8] was 1.81 µM; in experiment [9], 0.737 µM; in [10] it was 13 µM. In addition, the TGI in experiment [1] stood at 27 µM; in [2], 6.73 µM; in experiment [3] it was 3.11 µM; in experiment [5] it was 22.4 µM; in experiment [6], 10.5 µM; in experiment [7], 14.5 µM. Further, the TGI in [8] was 13.6 µM; in [9], 5.98 µM; in experiment [10], 26.5 µM.
As for `NC(=O)c1ncn(C2CCC(CP(=O)(O)O)C2)c1N` (stereo not drawn), the TGI in experiment [1], in experiment [2], in [3], in [4], in experiment [5] and in [6] was over 100 µM in each case. Moreover, the TGI in [7], in experiment [8], in experiment [9] and in experiment [10] was over 100 µM in each case.
In the case of `CN1CCN(c2nc(C3=C(c4c[nH]c5ccccc45)C(=O)NC3=O)c3ccccc3n2)CC1`, the GI50 in experiment [1] was 21.2 µM and 18.4 µM; in experiment [2], 9.47 µM and 16.9 µM; in experiment [3], 12.9 µM and 19.5 µM; in [4] it was 10 µM and 10.2 µM; in experiment [5], 22.2 µM and 17.3 µM; in [6], 15.2 µM and 19.2 µM. The GI50 in [7] was 11.2 µM and 17.7 µM; in experiment [8], 27.2 µM and 23.3 µM; in experiment [9], 15.6 µM and 26.3 µM; in experiment [10], 8.2 µM and 11.7 µM. The TGI was 65 µM and 48.9 µM in experiment [1]; 54.5 µM and 46.1 µM in experiment [2]; 60.2 µM and > 100 µM in [3]; 19.9 µM and 24.3 µM in [4]; 60.6 µM and 39.4 µM in experiment [5]; 33.4 µM and 35.9 µM in experiment [6]. The TGI was 20.8 µM and 32.8 µM in [7]; 65 µM and 49.2 µM in experiment [8]; 53.4 µM and 82.4 µM in experiment [9]; 65 µM and 30.1 µM in [10].
Turning to `COc1cccc(-n2cnc3c(N/N=C/c4ccncc4)ncnc32)c1`, the GI50 was 17.6 µM in experiment [1]; 7.34 µM in experiment [2]; 9.83 µM in [3]; 10.2 µM in experiment [4]; over 20.3 µM in experiment [5]; 13.6 µM in experiment [6]. Also, the GI50 in [7] is 13 µM; in experiment [8], over 25 µM; in experiment [9] it was 11.2 µM; in experiment [10], 8.26 µM. Further, the TGI in experiment [1], in experiment [2], in experiment [3], in [4], in experiment [5] and in experiment [6] was over 25 µM each time. In addition, the TGI in experiment [7], in experiment [8], in experiment [9] and in experiment [10] was over 25 µM each time.
For `CC(C)=CCNc1ncnc2c1ncn2C1OC(COP(=O)(O)O)C(O)C1O` (stereo not drawn), the GI50 is 7.39 µM in [1]; 3.6 µM in [2]; 2.72 µM in [3]; 73.8 µM in experiment [4]; 1.85 µM in experiment [5]; 7.24 µM in experiment [6]. Moreover, the GI50 in [7] was over 100 µM; in experiment [8], 26.3 µM; in [9] it was 4.96 µM; in experiment [10], 4.1 µM. Further, the TGI in experiment [1] was over 100 µM; in [2], over 67.7 µM; in [3] it was over 64.1 µM; in experiment [4] it was over 100 µM; in experiment [5], 5.48 µM; in experiment [6] it was over 100 µM. The TGI in experiment [7] is over 100 µM; in [8] it was over 100 µM; in experiment [9], 25.4 µM; in experiment [10], over 52 µM.
Regarding `Oc1ccc(Br)cc1CN1CCN(Cc2ccc(Cl)cc2)CC1`, the GI50 in [1] was 25.1 µM; in experiment [2], 22.7 µM; in experiment [3] it was 16.1 µM; in experiment [4], 14.7 µM; in experiment [5], 17 µM; in experiment [6] it was 25.7 µM. The GI50 was 24 µM in [7], 37.8 µM in experiment [8], 8.9 µM in experiment [9] and 9.5 µM in experiment [10]. Also, the TGI was over 100 µM in experiment [1]; over 100 µM in [2]; 51.3 µM in [3]; 45.8 µM in experiment [4]; 59.4 µM in experiment [5]; over 100 µM in experiment [6]. In addition, the TGI in experiment [7], in experiment [8], in [9] and in experiment [10] was over 100 µM each time.
For the compound `COc1ccc(NC(=O)CC(=O)n2nc(-c3ccccc3)c(N=Nc3ccc(C)cc3)c2-c2ccccc2)cc1`, the TGI was 63.3 µM in experiment [1]; over 100 µM in [2]; over 100 µM in experiment [3]; 70.3 µM in experiment [4]; over 59.6 µM in [5]; 66.3 µM in [6]. For the same compound, the TGI in experiment [7] was over 100 µM; in [8], 49.4 µM; in experiment [9] it was over 75 µM; in experiment [10], 55.3 µM.
Turning to `COc1cc2c(cc1OC)[C@@H]1[C@H](C2=O)c2ccc([N+](=O)[O-])cc2C(=O)N1CCCBr`, the TGI in [1] was 4.02 µM; in experiment [3] it was 9.27 µM; in [4], 3.09 µM; in experiment [5] it was 6.61 µM; in experiment [7] it was over 100 µM; in experiment [8], over 100 µM. The TGI in experiment [9] was over 100 µM. Further, the GI50 in experiment [2] was under 0.01 µM; in [3], 0.369 µM; in experiment [4], 0.367 µM; in experiment [5] it was 1.45 µM; in experiment [7], 2.54 µM; in [8], 0.474 µM. In addition, in experiment [9], the GI50 is under 0.01 µM.
Consider `CC(=O)O/N=C1\C=Cc2c(no[n+]2[O-])C1=O`, for which the TGI in [1] was 31.1 µM; in [2], 35.8 µM; in [3] it was 36.4 µM; in [4] it was 28.1 µM; in experiment [5], 34.4 µM; in [6], over 100 µM. The TGI is 36.9 µM in experiment [7], over 100 µM in experiment [8], 57.5 µM in [9] and 28.3 µM in experiment [10].
Regarding `CC(=O)c1c[nH]c2ccc(-c3ccnc(Nc4ccc(NC(=O)c5cccc(F)c5)c(CN5CCOCC5)c4)n3)cc12`, the GI50 in experiment [1] is 0.185 µM; in [2], 0.0526 µM; in experiment [3], 0.112 µM; in [4], 0.254 µM; in experiment [5], 0.177 µM; in experiment [6], 0.176 µM. In addition, the GI50 in [7] was 0.233 µM; in experiment [8], 0.218 µM; in experiment [9], 0.223 µM; in experiment [10] it was 0.0961 µM. Besides, the TGI in experiment [1] was over 35.5 µM; in experiment [2], 5.02 µM; in [4] it was 0.749 µM; in experiment [5], 1.3 µM; in experiment [7] it was 4.25 µM; in [8] it was 9.8 µM. The TGI in experiment [9] was 5.45 µM; in experiment [10], 1.75 µM.
For `COC1=CC(=O)c2c(O)c3c(c(O)c2C1=O)CC(C)(O)OC3` (stereo not drawn), the TGI in experiment [1] is 8.8 µM; in experiment [2], 16.5 µM; in experiment [3], 9.08 µM; in experiment [4] it was 2.1 µM; in [5], over 41 µM; in experiment [6] it was 6.48 µM. Moreover, the TGI in [7] amounted to 31.5 µM; in [8] it was 13.4 µM; in [9] it was 8.38 µM; in [10], 15.2 µM.
Consider `CC(C)CC(NC(=O)[C@@H]1CCCN1C(=O)CNC(=O)c1ccc(N)cc1)C(=O)N[C@H](C)C(=O)NO` (stereo partly drawn) (H-[4Abz]GP[ξL][dA]-{NHOH}), for which the GI50 in [1], in experiment [2], in experiment [3], in experiment [4], in experiment [5] and in [6] was over 100 µM throughout. In addition, the GI50 in [7], in [8], in experiment [9] and in experiment [10] was over 100 µM throughout. Also, the TGI in [1], in experiment [2], in experiment [3], in [4], in [5] and in experiment [6] was over 100 µM each time. Further, the TGI in experiment [7], in experiment [8], in [9] and in experiment [10] was over 100 µM in each case.
As for `O=C1CCc2cc([N+](=O)[O-])ccc2O1`, the TGI in [1], in [2], in experiment [3], in [4], in [5] and in [6] was over 100 µM in each case. Further, the TGI in [7], in [8] and in [9] was over 100 µM each time.
As to `COc1cc(Oc2cnc3cc(N)cc(N)c3n2)cc(OC)c1OC`, the GI50 is over 100 µM in [1]; 38.2 µM in experiment [2]; 50 µM in [3]; 59.9 µM in experiment [4]; 29.4 µM in experiment [5]; 52 µM in [6]. The GI50 in experiment [7] is 36.6 µM; in [8], over 100 µM; in [9] it was 33.5 µM; in experiment [10], 35 µM. Also, the TGI is over 100 µM in experiment [1]; over 100 µM in experiment [2]; over 100 µM in [3]; over 100 µM in experiment [4]; 95.8 µM in experiment [5]; over 100 µM in experiment [6]. Further, the TGI in [7], in experiment [8], in [9] and in experiment [10] was over 100 µM each time.
With `Cn1c(=O)c2[nH]c(Nc3ccccc3)nc2n(C)c1=O`, the TGI in experiment [1], in [2], in experiment [3], in experiment [4], in experiment [5] and in [7] was over 10 µM each time. Besides, the TGI in experiment [9] was over 10 µM.
`CC(C)n1c2c(c3ccccc3c1=O)C(=O)c1ccccc1-2`: the TGI in experiment [1], in experiment [2], in [3], in experiment [4], in [5] and in experiment [7] was over 100 µM throughout. In addition, the TGI in experiment [8], in experiment [9] and in [10] was over 100 µM each time.

Values taken from PubChem BioAssay (NCI).
